Measured values taken from US11492335B2, “Aryl or heteroaryl triazolone derivatives or salts thereof, or pharmaceutical compositions comprising the same” (YUHAN CORPORATION, priority 2018, dated 2022).
Where a name gives a salt, the structure may show the parent alone. Read-outs that look alike come from different tables or passages of the source.

Experiments:
Assay type in all cases: biochemical
[1] = biological target: T1, recombinant human VAP-1 (Homo sapiens, UniProt Q16853); test: Activity on recombinant human VAP-1, Amplex Red HRP-coupled hydrogen peroxide assay, benzylamine substrate; details: recombinant human VAP-1, benzylamine substrate, read-out: Inhibitory Activity (IC50, nM) human VAP-1
T1 construct: purchased R&D systems
T1 sequence (Q16853 1-763): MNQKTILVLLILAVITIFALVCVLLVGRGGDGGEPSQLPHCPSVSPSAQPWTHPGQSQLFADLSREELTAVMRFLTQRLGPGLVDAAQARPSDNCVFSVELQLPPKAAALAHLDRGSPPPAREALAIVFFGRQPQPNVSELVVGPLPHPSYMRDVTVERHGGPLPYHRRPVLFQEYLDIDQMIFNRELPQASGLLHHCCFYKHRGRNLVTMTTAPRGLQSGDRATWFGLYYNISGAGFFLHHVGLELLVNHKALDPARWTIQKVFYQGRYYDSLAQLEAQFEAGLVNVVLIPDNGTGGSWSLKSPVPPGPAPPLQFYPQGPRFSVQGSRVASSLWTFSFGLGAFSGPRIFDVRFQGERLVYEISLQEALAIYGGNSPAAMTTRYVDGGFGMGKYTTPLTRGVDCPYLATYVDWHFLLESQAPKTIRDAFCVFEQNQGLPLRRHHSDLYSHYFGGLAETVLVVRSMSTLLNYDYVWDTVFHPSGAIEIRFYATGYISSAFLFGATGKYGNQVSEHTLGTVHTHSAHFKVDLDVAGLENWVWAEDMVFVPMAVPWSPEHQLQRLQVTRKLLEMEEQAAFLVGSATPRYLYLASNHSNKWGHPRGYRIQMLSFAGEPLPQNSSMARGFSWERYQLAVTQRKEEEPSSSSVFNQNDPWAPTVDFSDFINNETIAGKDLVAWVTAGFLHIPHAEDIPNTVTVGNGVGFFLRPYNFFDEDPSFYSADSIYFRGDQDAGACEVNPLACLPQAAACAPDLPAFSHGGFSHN
Description: (§1) The compounds according to the present technology were evaluated in terms of activity on recombinant human VAP-1 (R&D systems) by measuring the level of hydrogen peroxide in horseradish peroxidase (HRP)-coupled reaction using Amplex Red Hydrogen Peroxide Assay Kit (Molecular Probes, Invitrogen, USA). The experiment was carried out at room temperature using benzylamine as a substrate. In the HRP-coupled reaction, hydrogen peroxide oxidation of 10-acetyl-3,7-dihydroxyphenoxazine (Amplex Red reagent) produces resorufin, which is a highly fluorescent compound. Briefly, the test compound was dissolved in dimethyl sulfoxide (DMSO) at a concentration of 20 mM. The dose-response assessment was made by 1:3 serial dilution in DMSO, thereby creating an 8 point curve. The concentration of the upper part was controlled according to the efficacy of the compounds, followed by dilution with a reaction buffer solution to obtain a final DMSO concentration less than 1%. To each well of a 96 black well plate, human VAP-1 purified in 50 mM sodium phosphate buffer solution (pH7.4) was added. The test compounds dissolved in DMSO were incubated with the human VAP-1 enzymes at 37° C. for 30 minutes. After 30-minute incubation, each well is added with a reaction mixture containing 200 uM Amplex Red reagent prepared from 50 mM sodium phosphate buffer solution (pH 7.4), 1 mM benzylamine, and 1 U/mL HRP. Fluorescence intensity was measured at several time points during 1-2 hours using a microplate reader (Flexstation3, Molecular Devices) under the wavelength condition exciting at 544 nm and reading the emission at 590 nm. The inhibitory effect of the compounds was measured as a decrease (%) in the signal rate as compared to the control group without any inhibitor (only diluted DMSO). Data was fixed to a logistic model with four variables and IC50 value was calculated using GraphPad Prism program.

[2] = biological target: T2, recombinant human MAO-B (monoamine oxidase-B) (Homo sapiens, UniProt P27338); test: Activity on recombinant human MAO-B, Amplex Red method, 1 mM benzylamine substrate; details: 1 mM benzylamine
T2 construct: purchased Sigma-Aldrich
T2 sequence (P27338 1-520): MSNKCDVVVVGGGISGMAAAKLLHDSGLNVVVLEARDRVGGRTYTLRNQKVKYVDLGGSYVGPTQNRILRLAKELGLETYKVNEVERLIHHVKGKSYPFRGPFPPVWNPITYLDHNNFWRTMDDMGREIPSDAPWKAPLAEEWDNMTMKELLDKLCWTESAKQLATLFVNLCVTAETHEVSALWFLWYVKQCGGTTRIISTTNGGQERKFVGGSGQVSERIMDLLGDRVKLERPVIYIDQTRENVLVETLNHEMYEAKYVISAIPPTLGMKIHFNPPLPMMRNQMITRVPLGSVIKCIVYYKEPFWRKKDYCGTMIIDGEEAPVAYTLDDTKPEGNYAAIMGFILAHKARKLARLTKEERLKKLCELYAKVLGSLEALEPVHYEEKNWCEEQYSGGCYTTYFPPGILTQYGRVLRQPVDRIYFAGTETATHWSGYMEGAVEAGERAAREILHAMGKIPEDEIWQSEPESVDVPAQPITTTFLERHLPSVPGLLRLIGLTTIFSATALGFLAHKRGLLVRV
Description: as §1
(§2) In addition, the compounds according to the present technology were evaluated in terms of activity on a recombinant human MAO-A (monoamine oxidase-A, Sigma-Aldrich) and a recombinant human MAO-B (monoamine oxidase-B, Sigma-Aldrich) by using as substrates, 0.5 mM tyramine and 1 mM benzylamine, respectively, with a method similar to the activity evaluation method for recombinant human VAP-1. The compounds according to the present technology were also evaluated in terms of activity on a recombinant human DAO (diamine oxidase, R&D systems) by using as a substrate 1 mM putrescine with a method similar to the activity evaluation method for recombinant human VAP-1.

[3] = biological target: T3, recombinant human DAO (diamine oxidase) (Homo sapiens, UniProt P19801); test: Activity on recombinant human DAO, Amplex Red method, 1 mM putrescine substrate; details: recombinant human DAO; for IC50: read-out: Inhibitory Activity (IC50, nM) DAO
T3 construct: purchased R&D systems
T3 sequence (P19801 20-751): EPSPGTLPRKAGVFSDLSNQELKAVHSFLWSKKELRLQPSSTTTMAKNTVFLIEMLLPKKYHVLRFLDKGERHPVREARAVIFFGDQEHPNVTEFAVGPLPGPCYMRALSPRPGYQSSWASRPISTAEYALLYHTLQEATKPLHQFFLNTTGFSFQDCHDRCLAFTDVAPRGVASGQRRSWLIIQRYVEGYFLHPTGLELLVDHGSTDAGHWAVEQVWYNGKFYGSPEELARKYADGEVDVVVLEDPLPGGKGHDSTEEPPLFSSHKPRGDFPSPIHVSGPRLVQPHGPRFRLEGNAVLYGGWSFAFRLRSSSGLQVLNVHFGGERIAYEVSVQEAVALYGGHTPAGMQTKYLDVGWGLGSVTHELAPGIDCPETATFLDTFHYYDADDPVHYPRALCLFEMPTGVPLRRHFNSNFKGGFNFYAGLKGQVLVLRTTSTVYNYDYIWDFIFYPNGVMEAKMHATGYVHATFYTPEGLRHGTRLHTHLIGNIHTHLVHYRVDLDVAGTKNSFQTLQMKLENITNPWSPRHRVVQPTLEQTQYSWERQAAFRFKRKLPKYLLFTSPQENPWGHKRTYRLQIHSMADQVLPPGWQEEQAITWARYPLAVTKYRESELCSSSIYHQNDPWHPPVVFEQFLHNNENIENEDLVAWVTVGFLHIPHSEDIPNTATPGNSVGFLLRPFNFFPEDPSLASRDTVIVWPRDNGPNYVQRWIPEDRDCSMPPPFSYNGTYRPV
Description: as §1, §2

[4] = 1 mM putrescine, * = between 10 and 100 nM, ** = between 300 and 1000 nM

Compound: Cc1c(-c2ccc(N3CCOCC3)nc2)cccc1-n1cnn(C/C(=C/F)CN)c1=O [Example 110, 2-[(2E)-2-(aminomethyl)-3-fluoroprop-2-en-1-yl]-4-{2-methyl-3-[6-(morpholin-4-yl)pyridin-3-yl]phenyl}-2,4-dihydro-3H-1,2,4-triazol-3-one]
- IC50 ([1]; 30 min preincubation at 37° C.): 4.2 nM
- Inhibitory Activity (IC50, nM) MAO-B [2]: no inhibitory
- Inhibitory Activity (IC50, nM) DAO [3, 4]: no inhibitory

Compound: Cc1c(-c2ccc3c(c2)OCCO3)cccc1-n1cnn(C/C(=C/F)CN)c1=O [Example 112, 2-[(2E)-2-(aminomethyl)-3-fluoroprop-2-en-1-yl]-4-[3-(2,3-dihydro-1,4-benzodioxin-6-yl)-2-methylphenyl]-2,4-dihydro-3H-1,2,4-triazol-3-one]
- IC50 ([1]; 30 min preincubation at 37° C.): 2.5 nM
- Inhibitory Activity (IC50, nM) MAO-B [2]: no inhibitory
- Inhibitory Activity (IC50, nM) DAO [3, 4]: no inhibitory

Compound: NC/C(=C\F)Cn1ncn(-c2cccc(-c3cncc4ccccc34)c2)c1=O [Example 104, 2-[(2E)-2-(aminomethyl)-3-fluoroprop-2-en-1-yl]-4-[3-(isoquinolin-4-yl)phenyl]-2,4-dihydro-3H-1,2,4-triazol-3-one hydrochloride]
- IC50 ([1]; 30 min preincubation at 37° C.): 3 nM
- IC50 [3, 4]: 54 nM

Compound: COc1cc(N2CCOCC2)c(Br)cc1-n1cnn(C/C(=C/F)CN)c1=O [Example 47, 2-[(2E)-2-(aminomethyl)-3-fluoroprop-2-en-1-yl]-4-[5-bromo-2-methoxy-4-(morpholin-4-yl)phenyl]-2,4-dihydro-3H-1,2,4-triazol-3-one hydrochloride]
- IC50 ([1]; 30 min preincubation at 37° C.): 2.8 nM
- IC50 [3, 4]: 1200 nM

Compound: CC(=O)Nc1cc(-c2cccc(-n3cnn(C/C(=C/F)CN)c3=O)c2C)ccn1 [Example 109, N-[4-(3-{1-[(2E)-2-(aminomethyl)-3-fluoroprop-2-en-1-yl]-5-oxo-1,5-dihydro-4H-1,2,4-triazol-4-yl}-2-methylphenyl)pyridin-2-yl]acetamide]
- IC50 ([1]; 30 min preincubation at 37° C.): 8.1 nM
- IC50 [3, 4]: 740 nM

Compound: CS(=O)(=O)c1ccc(-c2cccc(-n3cnn(C/C(=C\F)CN)c3=O)c2)cc1 [Example 53, 2-[(2Z)-2-(aminomethyl)-3-fluoroprop-2-en-1-yl]-4-[4′-(methylsulfonyl)biphenyl-3-yl]-2,4-dihydro-3H-1,2,4-triazol-3-one hydrochloride]
- IC50 ([1]; 30 min preincubation at 37° C.): 2.5 nM
- IC50 [3, 4]: < 30 nM

Compound: NC/C(=C\F)Cn1ncn(-c2ncc(-c3cccc(-c4nnn[nH]4)c3)s2)c1=O [Example 230, 2-[(2E)-2-(aminomethyl)-3-fluoroprop-2-en-1-yl]-4-{5-[3-(1H-tetrazol-5-yl)phenyl]-1,3-thiazol-2-yl}-2,4-dihydro-3H-1,2,4-triazol-3-one]
- IC50 [1]: 0.53 nM
- IC50 ([3]; 1 mM putrescine substrate): 2.7 nM

Compound: Cc1cc(-c2ccc(-c3nnc[nH]3)cc2)cnc1-n1cnn(C/C(=C\F)CN)c1=O [Example 135, 2-[(2Z)-2-(aminomethyl)-3-fluoroprop-2-en-1-yl]-4-{3-methyl-5-[4-(4H-1,2,4-triazol-3-yl)phenyl]pyridin-2-yl}-2,4-dihydro-3H-1,2,4-triazol-3-one]
- IC50 ([1]; 30 min preincubation at 37° C.): 3.2 nM
- IC50 [3, 4]: 520 nM

Compound: Cc1cc(-c2ccc(S(C)(=O)=O)cc2)ncc1-n1cnn(C/C(=C/F)CN)c1=O [Example 119, 2-[(2E)-2-(aminomethyl)-3-fluoroprop-2-en-1-yl]-4-{4-methyl-6-[4-(methylsulfonyl)phenyl]pyridin-3-yl}-2,4-dihydro-3H-1,2,4-triazol-3-one]
- IC50 ([1]; 30 min preincubation at 37° C.): 0.94 nM
- IC50 [3, 4]: < 100 nM

Compound: CC(=O)Nc1cc(-c2cnc(-n3cnn(C/C(=C/F)CN)c3=O)s2)ccn1 [Example 231, N-[4-(2-{1-[(2E)-2-(aminomethyl)-3-fluoroprop-2-en-1-yl]-5-oxo-1,5-dihydro-4H-1,2,4-triazol-4-yl}-1,3-thiazol-5-yl)pyridin-2-yl]acetamide]
- IC50 [1]: 0.94 nM
- IC50 ([3]; 1 mM putrescine substrate): 0.086 nM

Compound: Cc1cc(-c2cccc(-c3nc[nH]n3)c2)ncc1-n1cnn(C/C(=C/F)CN)c1=O [Example 122, 2-[(2E)-2-(aminomethyl)-3-fluoroprop-2-en-1-yl]-4-{4-methyl-6-[3-(1H-1,2,4-triazol-3-yl)phenyl]pyridin-3-yl}-2,4-dihydro-3H-1,2,4-triazol-3-one]
- IC50 ([1]; 30 min preincubation at 37° C.): 0.77 nM
- IC50 [3, 4]: < 100 nM

Compound: Cc1c(-c2ccc3nonc3c2)cccc1-n1cnn(C/C(=C/F)CN)c1=O [Example 113, 2-[(2E)-2-(aminomethyl)-3-fluoroprop-2-en-1-yl]-4-[3-(2,1,3-benzooxadiazol-5-yl)-2-methylphenyl]-2,4-dihydro-3H-1,2,4-triazol-3-one]
- IC50 ([1]; 30 min preincubation at 37° C.): 2.3 nM
- IC50 [3, 4]: < 1000 nM

Compound: Cc1ncc(-c2cccc(-n3cnn(C/C(=C/F)CN)c3=O)c2)cn1 [Example 91, 2-[(2E)-2-(aminomethyl)-3-fluoroprop-2-en-1-yl]-4-[3-(2-methylpyrimidin-5-yl)phenyl]-2,4-dihydro-3H-1,2,4-triazol-3-one hydrochloride]
- IC50 ([1]; 30 min preincubation at 37° C.): 1.5 nM
- IC50 [3, 4]: 13 nM
